Experimental data published in publication PMC3933419, “Synthesis and Properties of a Selective Inhibitor of Homeodomain–Interacting Protein Kinase 2 (HIPK2)” (PLoS ONE, 2014).
pIC50: −log10 of the molar value. Like-named read-outs stand apart in the source and are kept apart here.

Legend:
CK1 [1] = assay: CK1 phosphorylation assay; type: biochemical, rat; details: 20 µM ATP
Experimental: (§1) Native CK2 and CK1 were purified from rat liver.
(§2) PIM1, CK2, CK1 phosphorylation assays were performed following similar procedures used for HIPK2 except that preincubation was omitted. In detail, PIM1 activity was determined at 100 µM ATP concentration and in the presence of 30 µM synthetic peptide substrate […]. CK2 and CK1 activities were assayed in a buffer containing 50 mM Tris/HCl (pH 7.5), 100 mM NaCl, 12 mM MgCl2, 100 µM specific peptide substrate […] (for CK2), or 200 µM […] (for CK1) and 20 µM [γ-^33P]ATP (500–1000 c.p.m./pmol).

CK2 [2] = target: T1, CK2 (Rattus norvegicus, UniProt P19139); assay: CK2 phosphorylation assay; type: biochemical; details: 20 µM ATP
T1 construct: Native CK2 and CK1 were purified from rat liver; from tissue; host or cells: rat liver
Experimental: as §1, §2

PIM1 [3] = target: T2, PIM1 (Homo sapiens, UniProt P11309); assay: PIM1 phosphorylation assay; type: biochemical; details: 100 µM ATP
T2 construct: The source of HIPK2 and of all of the other protein kinases used for specificity assays is as described elsewhere
Experimental: as §2

HIPK2 [4] = target: T3, HIPK2 (Homo sapiens, UniProt Q9H2X6); assay: HIPK2 kinase inhibition assay (33P-ATP, peptide […]); type: biochemical
T3 construct: The source of HIPK2 and of all of the other protein kinases used for specificity assays is as described elsewhere
Experimental: The source of HIPK2 and of all of the other protein kinases used for specificity assays is as described elsewhere. […] The reaction was stopped by addition of 5 μl of 0.5 M orthophosphoric acid before spotting aliquots onto phosphocellulose filters. Filters were washed in 75 mM phosphoric acid (5-10 ml/each) four times and then once in methanol and dried before counting.

endogenous HIPK2 = target: T4, endogenous HIPK2 (Homo sapiens, UniProt Q9H2X6); assay: Activity of HIPK2 immunoprecipitated from treated HepG2 cells; type: cell-based; details: HepG2 cells, increasing concentrations; immunoprecipitated HIPK2
T4 construct: endogenous in cells; host or cells: HepG2
Experimental: HepG2 cells (human hepatocellular carcinoma) were cultured in Dulbecco's modified Eagle's medium (DMEM; Sigma) supplemented with 10% fetal calf serum, 2 mM L-glutamine, 100 unit/ml penicillin and 100 µg/ml streptomycin; CEM cells (human T lymphoblastoid cells) were cultured n RPMI-1640 (Sigma) with the same supplements. Cells were cultured in an atmosphere containing 5% CO2, at 37°C. Treatments with TBID were performed in the same medium but with 1% fetal calf serum; control cells were treated with the solvent (DMSO). Total cell lysates were prepared as in [29].
Alternatively, HIPK2 was immunoprecipitated with 2.5 µl anti-HIPK2 (Epitomics) from 350 µg of total lysate proteins deriving from HepG2 cells either treated or not with TBID following a protocol elsewhere described. An aspecific antibody was used as negative control. Immunoprecipitated HIPK2 activity was measured towards the specific peptide substrate ([…]) at 1.6 mM concentration, for 10 min at 30°C, under the same conditions described above for the in vitro kinase assay. Peptide radioactivity was measured after sample spotting on phospho-cellulose paper, washing and scintillation counting, as in [30], while the amount of HIPK2 immunoprecipitated was evaluated by WB.

HIPK2 [5] = target: T3, HIPK2; parameters: method as in PMID 17850214; details: 1 µM concentration; panel of 71 protein kinases; ref [9]; cited from earlier work
[6] = system: panel of 71 protein kinases; details: 1 µM concentration, ref [9]; cited from earlier work
HIPK2 [7] = target: T3, HIPK2; parameters: method as in PMID 18588507; details: TBB and TBI values; ref [19]; cited from earlier work
CK1 [8] = system: CK1; parameters: method as in PMID 18588507; details: TBB and TBI values; ref [19]; cited from earlier work
PIM1 [9] = target: T2, PIM1; parameters: method as in PMID 18588507; details: TBB and TBI values; ref [19]; cited from earlier work
70 PKs [10] = assay: Selectivity parameters (Lorenz curve, Gini coefficient, hit rate) of TBI; type: biochemical; details: 10 µM, from data published in ref [19]
Experimental: Lorenz curves were derived from the selectivity data. Gini coefficients and hit rates (expressing the percent of kinases inhibited >50% by a given compound) were calculated as described in [25].

CK2 [11] = target: T1, CK2; parameters: method as in PMID 18588507; details: read-out: IC50 for CK2; TBB and TBI values; ref [19]; cited from earlier work
70 PKs [12] = system: 70 PKs; parameters: method as in PMID 21513497; details: 10 µM TBI; ref [20]; cited from earlier work

T2 sequence (P11309 whole entry, species assumed): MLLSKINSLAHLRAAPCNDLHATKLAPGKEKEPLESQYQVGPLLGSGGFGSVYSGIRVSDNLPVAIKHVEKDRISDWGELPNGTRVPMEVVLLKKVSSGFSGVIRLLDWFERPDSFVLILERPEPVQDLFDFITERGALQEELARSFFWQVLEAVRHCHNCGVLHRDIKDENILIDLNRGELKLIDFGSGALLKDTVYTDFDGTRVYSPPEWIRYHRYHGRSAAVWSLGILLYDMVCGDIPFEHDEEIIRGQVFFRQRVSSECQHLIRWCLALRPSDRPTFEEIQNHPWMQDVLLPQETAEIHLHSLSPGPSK
T1 sequence (P19139 whole entry): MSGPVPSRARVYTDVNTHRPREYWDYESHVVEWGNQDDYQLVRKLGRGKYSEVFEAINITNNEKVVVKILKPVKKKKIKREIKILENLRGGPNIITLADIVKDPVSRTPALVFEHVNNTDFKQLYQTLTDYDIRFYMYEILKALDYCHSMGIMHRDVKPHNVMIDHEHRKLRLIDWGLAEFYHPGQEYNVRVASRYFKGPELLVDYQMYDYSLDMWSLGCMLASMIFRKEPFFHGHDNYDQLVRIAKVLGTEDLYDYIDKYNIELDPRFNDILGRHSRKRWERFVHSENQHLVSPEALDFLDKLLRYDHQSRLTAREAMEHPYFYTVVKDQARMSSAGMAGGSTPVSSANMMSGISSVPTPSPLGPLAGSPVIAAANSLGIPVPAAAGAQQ
T1 sequence (P67874 whole entry partner): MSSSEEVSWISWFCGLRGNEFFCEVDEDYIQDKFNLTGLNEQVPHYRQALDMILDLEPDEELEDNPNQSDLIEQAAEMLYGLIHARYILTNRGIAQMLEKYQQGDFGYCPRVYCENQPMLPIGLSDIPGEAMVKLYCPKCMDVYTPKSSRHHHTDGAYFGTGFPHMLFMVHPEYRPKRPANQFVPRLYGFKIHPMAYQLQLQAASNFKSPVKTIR
T3 sequence (Q9H2X6 whole entry): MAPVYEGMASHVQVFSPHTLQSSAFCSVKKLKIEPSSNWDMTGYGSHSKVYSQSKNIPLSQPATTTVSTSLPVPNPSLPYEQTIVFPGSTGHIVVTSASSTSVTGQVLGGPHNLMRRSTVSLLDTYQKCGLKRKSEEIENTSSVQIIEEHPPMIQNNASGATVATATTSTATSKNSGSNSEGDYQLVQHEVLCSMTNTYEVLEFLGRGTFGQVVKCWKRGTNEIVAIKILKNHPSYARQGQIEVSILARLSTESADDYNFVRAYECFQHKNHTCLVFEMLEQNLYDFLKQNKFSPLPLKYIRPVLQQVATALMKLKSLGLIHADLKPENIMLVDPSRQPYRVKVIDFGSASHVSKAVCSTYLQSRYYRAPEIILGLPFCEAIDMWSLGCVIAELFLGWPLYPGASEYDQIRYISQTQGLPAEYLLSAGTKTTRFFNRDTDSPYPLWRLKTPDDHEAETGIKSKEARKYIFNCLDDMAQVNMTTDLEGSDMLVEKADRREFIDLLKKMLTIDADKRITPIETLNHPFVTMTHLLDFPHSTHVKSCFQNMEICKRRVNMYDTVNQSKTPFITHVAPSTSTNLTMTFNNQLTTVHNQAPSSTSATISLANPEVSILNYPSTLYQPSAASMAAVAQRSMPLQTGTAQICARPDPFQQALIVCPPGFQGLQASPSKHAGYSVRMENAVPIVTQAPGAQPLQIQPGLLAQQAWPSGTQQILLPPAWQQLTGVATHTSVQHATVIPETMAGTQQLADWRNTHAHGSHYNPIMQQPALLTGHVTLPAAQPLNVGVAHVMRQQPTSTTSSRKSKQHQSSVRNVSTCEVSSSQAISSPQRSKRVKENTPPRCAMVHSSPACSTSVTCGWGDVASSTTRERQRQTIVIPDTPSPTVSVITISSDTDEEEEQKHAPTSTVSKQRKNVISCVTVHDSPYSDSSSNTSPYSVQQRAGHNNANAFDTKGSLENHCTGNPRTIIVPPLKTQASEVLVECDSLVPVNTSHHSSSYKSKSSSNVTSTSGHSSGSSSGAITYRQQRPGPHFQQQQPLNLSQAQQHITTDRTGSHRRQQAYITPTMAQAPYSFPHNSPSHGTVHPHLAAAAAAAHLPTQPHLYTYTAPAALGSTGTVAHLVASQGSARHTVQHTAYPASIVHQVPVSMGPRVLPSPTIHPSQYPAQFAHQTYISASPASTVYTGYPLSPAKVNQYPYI
T4 sequence (Q9H2X6 whole entry): as above

Row | SMILES | melting point | pIC50 (CK1 [1]) | pIC50 (CK2 [2]) | pIC50 (PIM1 [3]) | pIC50 (HIPK2 [4]; 20 µM ATP, in vitro) | also measured
1 | O=C1c2c(Br)c(Br)c(Br)c(Br)c2C(=O)N1c1nccs1 [5b, 4,5,6,7-Tetrabromo-2-(thiazol-2-yl)isoindoline-1,3-dione] | 228 to 232 °C | 5.03 | 4.80 | 4.40 | 6.14 | –
2 | O=C1c2c(Br)c(Br)c(Br)c(Br)c2C(=O)N1c1nncs1 [5c, 4,5,6,7-Tetrabromo-2-(1,3,4-thiadiazol-2-yl)isoindoline-1,3-dione] | 310 to 311 °C | < 4.40 | 4.62 | < 4.40 | 5.59 | –
3 | O=C1c2c(Br)c(Br)c(Br)c(Br)c2C(=O)N1c1ncns1 [5d, 4,5,6,7-Tetrabromo-2-(1,2,4-thiadiazol-5-yl)isoindoline-1,3-dione] | 325 to 326 °C | < 4.40 | 4.46 | < 4.40 | 5.60 | –
4 | O=C1c2c(Br)c(Br)c(Br)c(Br)c2C(=O)N1c1ccn[nH]1 [5e, 4,5,6,7-Tetrabromo-2-(1H-pyrazol-5-yl)isoindoline-1,3-dione] | 333 to 334 °C (dec.) | < 4.40 | 4.64 | < 4.40 | < 4.40 | endogenous HIPK2 activity upon cell treatment (endogenous HIPK2): not
5 | Cc1cc(N2C(=O)c3c(Br)c(Br)c(Br)c(Br)c3C2=O)[nH]n1 [5f, 4,5,6,7-Tetrabromo-2-(3-methyl-1H-pyrazol-5-yl)isoindoline-1,3-dione] | 331 to 332 °C | < 4.40 | < 4.40 | < 4.40 | < 4.40 | –
6 | O=C1c2c(Br)c(Br)c(Br)c(Br)c2C(=O)N1c1ncn[nH]1 [5g, 4,5,6,7-Tetrabromo-2-(1H-1,2,4-triazol-5-yl)isoindoline-1,3-dione] | > 360 °C | < 4.40 | 4.60 | < 4.40 | 4.64 | –
7 | O=C1c2c(Br)c(Br)c(Br)c(Br)c2C(=O)N1c1ccon1 [5h, 4,5,6,7-Tetrabromo-2-(isoxazol-3-yl)isoindoline-1,3-dione] | 290 to 293 °C | < 4.40 | < 4.40 | < 4.40 | 4.63 | –
8 | O=C1c2c(Br)c(Br)c(Br)c(Br)c2C(=O)N1c1cnccn1 [5i, 4,5,6,7-Tetrabromo-2-(pyrazin-2-yl)isoindoline-1,3-dione] | 272 to 275 °C | < 4.40 | < 4.40 | < 4.40 | 5.44 | –
9 | C[S+]([O-])c1ccc(-c2nc(-c3ccncc3)c(-c3ccc(F)cc3)[nH]2)cc1 (stereo not drawn) [SB203580] | – | – | – | – | – | inhibition of HIPK2 (HIPK2 [5]): 14%; number of protein kinases inhibited >60% [6]: 6; effect on HIPK2 activity (HIPK2 [4]; up to 40 µM concentration): not appreciably affecting
10 | Brc1c(Br)c(Br)c2[nH]nnc2c1Br [TBB, 4,5,6,7-tetrabromobenzotriazole] | – | – | – | – | – | pIC50 (HIPK2 [7]): 5.28; pIC50 (CK1 [8]): < 4.40; pIC50 (PIM1 [9]): 5.98
11 | Brc1c(Br)c(Br)c2[nH]cnc2c1Br [TBI] | – | – | – | – | – | pIC50 (HIPK2 [7]): 6.15; pIC50 (CK1 [8]): 4.82; Gini coefficient (70 PKs [10]): 0.310; pIC50 (CK2 [11]): 6.22; pIC50 (PIM1 [9]): 6.94; pIC50 (HIPK2 [4]; TBI value given in the text): 6.00; number of kinases inhibited >90% (70 PKs [12]): 10
